Measurements from publication PMC7586344, “Discovery of Novel pERK1/2- or β-Arrestin-Preferring 5-HT1A Receptor-Biased Agonists: Diversified Therapeutic-like versus Side Effect Profile” (Journal of Medicinal Chemistry, 2020).

Assays:
[1] = Preliminary metabolic stability in rat liver microsomes; type: in vitro ADME; conditions: pH 7.4, RLMs 1 mg/mL, 50 μM compound, 37 °C
HepG2 cells = assay: Hepatotoxicity, HepG2 cell viability; type: cell-based, human; conditions: 72 h incubation
β1 = biological target: T1, β1 (Homo sapiens, UniProt P08588); assay: Off-target binding screen; conditions: 1000 nM, read-out: % Inhibition of Control Specific Binding
T1 construct: Eurofins Pharma Discovery Services (contract screen)

H1 = biological target: T2, H1 (Homo sapiens, UniProt P35367); assay: Off-target binding screen; conditions: 1000 nM, read-out: % Inhibition of Control Specific Binding
T2 construct: Eurofins Pharma Discovery Services (contract assay)

male Wistar rats [2] = assay: Porsolt forced swimming test; type: in vivo; conditions: rat FST, 60 min before test, mean ± SEM
Experimental: The experiments were performed on male Wistar rats (170–200 g) obtained from an accredited animal facility at the Jagiellonian University Medical College, Krakow, Poland. […] Standard laboratory food (LSM-B) and filtered water were freely available. […] Each animal was assigned randomly to treatment groups and only used once (no repeated use of animals). All the experiments were performed by two observers unaware of the treatment applied between 9:00 and 14:00 on separate groups of animals. […] All efforts were made to minimize suffering and to reduce the number of animals used in the experiments and to use only the number of animals necessary to produce reliable scientific data. Each experimental group consisted of 6–8 animals. […] The examined compounds were administered orally 60 min before tests. In antagonism experiments, WAY100635 (Tocris, UK) was administered subcutaneously 75 min before testing. Control animals received vehicle (distilled water) according to the same schedule. […] On the following day (24 h later), the rats were re-placed in the cylinder after administration of test compounds and the total duration of immobility was recorded during the 5-min test period. […] Fresh water was used for each animal.

[3] = In vitro rat plasma protein binding (ultrafiltration); type: in vitro ADME; conditions: rat serum; for fraction unbound at 30 min, 3 µg/mL / fraction unbound at 30 min, 30 µg/mL: male, Wistar, read-out: PPB ± SD (converted)
Experimental: Fresh blood was harvested from male adult Wistar rats that were sacrificed by exsanguination. The blood was allowed to clot for 20 min at room temperature and then centrifuged at 3000 rpm for 10 min (Universal 32, Hettich, Germany). 56 and 44 dissolved in water were added in volume of 10 μL to separate glass tubes containing 1 mL aliquots of rat serum to achieve final concentrations of 3 and 30 μg/mL each. All tests were run in triplicate. After vortexing, the serum samples were incubated in a water bath at 37 °C for 30 min with gentle shaking. Following this incubation period, 100 μL of serum samples from each tube were transferred to Eppendorf tubes and frozen at −80 °C for analysis. The remaining serum was transferred into Centrifree ultrafiltration devices with Ultracel regenerated cellulose membrane (Merck, Darmstadt, Germany) and centrifuged at 1000g for 15 min (EBA III centrifuge, Hettich, Germany). The collected ultrafiltrates were frozen (−80 °C) for further analysis.

male Wistar rats [4] = assay: Lower lip retraction; type: in vivo; conditions: rat; for LLR score: 50 min before test, score 0-10; for ability to induce lower lip retraction (LLR), in words: p.o.
Experimental: The experiments were performed on male Wistar rats (170–200 g) obtained from an accredited animal facility at the Jagiellonian University Medical College, Krakow, Poland. […] All efforts were made to minimize suffering and to reduce the number of animals used in the experiments and to use only the number of animals necessary to produce reliable scientific data. Each experimental group consisted of 6–8 animals.
The examined compounds were administered orally 60 min before tests. In antagonism experiments, WAY100635 (Tocris, UK) was administered subcutaneously 75 min before testing. Control animals received vehicle (distilled water) according to the same schedule.
Observations were made according to the method described by Kleven et al.([68]) Animals were observed individually during a 10 min period for 10 s of observation per animal. During each of these observation periods, the uninterrupted presence for at least 3 s (1) or absence (0) of LLR was recorded. This cycle was repeated 10 times over a 10 min period; thus, the incidence of a particular behavior could vary from 0 to 10.

panel of 45 off-targets = conditions: highest off-target affinity, estimated from screening data

T2 sequence (P35367 whole entry): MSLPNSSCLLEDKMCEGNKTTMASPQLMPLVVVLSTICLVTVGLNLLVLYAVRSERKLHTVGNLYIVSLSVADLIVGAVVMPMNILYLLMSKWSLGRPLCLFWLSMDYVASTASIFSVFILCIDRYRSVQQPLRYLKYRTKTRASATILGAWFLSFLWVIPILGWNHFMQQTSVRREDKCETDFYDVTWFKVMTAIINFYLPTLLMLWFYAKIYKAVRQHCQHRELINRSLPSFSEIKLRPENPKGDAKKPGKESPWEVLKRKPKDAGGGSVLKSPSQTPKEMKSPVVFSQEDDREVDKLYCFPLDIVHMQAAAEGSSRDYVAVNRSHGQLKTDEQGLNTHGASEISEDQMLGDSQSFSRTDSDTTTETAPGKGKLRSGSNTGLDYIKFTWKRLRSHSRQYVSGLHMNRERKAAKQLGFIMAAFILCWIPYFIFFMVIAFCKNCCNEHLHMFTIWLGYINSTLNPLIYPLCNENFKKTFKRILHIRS
T1 sequence (P08588 whole entry): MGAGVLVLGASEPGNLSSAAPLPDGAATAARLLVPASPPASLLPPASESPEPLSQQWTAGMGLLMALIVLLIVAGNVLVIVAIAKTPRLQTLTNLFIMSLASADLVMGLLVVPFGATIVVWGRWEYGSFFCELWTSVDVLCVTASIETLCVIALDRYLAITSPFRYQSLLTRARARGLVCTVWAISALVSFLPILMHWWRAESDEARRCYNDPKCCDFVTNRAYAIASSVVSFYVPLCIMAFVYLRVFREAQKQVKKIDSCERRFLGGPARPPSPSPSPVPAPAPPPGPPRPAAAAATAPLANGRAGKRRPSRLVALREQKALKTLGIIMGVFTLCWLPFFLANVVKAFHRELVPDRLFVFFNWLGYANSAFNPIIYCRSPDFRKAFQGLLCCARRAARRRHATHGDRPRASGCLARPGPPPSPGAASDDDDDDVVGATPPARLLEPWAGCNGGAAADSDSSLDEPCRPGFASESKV

Compound	remaining at 2 h, 50 μM [1] [%]	hepatotoxicity 50% viability of HepG2 cells (HepG2 cells) [µM]	inhibition at 1 µM (β1) [%]	inhibition at 1 µM (H1) [%]	Immobility time (male Wistar rats [2]; 0.04 mg/kg p.o.) [s]	fu ± SD ([3]; C0 3 µg/mL) [%]	fu ± SD ([3]; C0 30 µg/mL) [%]	fraction unbound at 30 min, 3 µg/mL ([3]; C0 3 µg/mL)	fraction unbound at 30 min, 30 µg/mL ([3]; C0 30 µg/mL)	LLR score (male Wistar rats [4]; 0.04 mg/kg p.o.)	ability to induce lower lip retraction (LLR), in words (male Wistar rats [4])	Immobility time (male Wistar rats [2]; 1.25 mg/kg p.o.) [s]	LLR score (male Wistar rats [4]; 0.312 mg/kg p.o.)	LLR score (male Wistar rats [4]; 1.25 mg/kg p.o.)	affinity for some of the off-targets (pKi) (panel of 45 off-targets)
O=C(c1ccc(F)c(Cl)c1)N1CCC(F)(CNCCOc2ccccc2)CC1 [Compound 3]	59.2	>50	-8	-9											
CNc1ccccc1OCCNCC1(F)CCN(C(=O)c2ccc(F)c(Cl)c2)CC1 [Compound 44, (3-Chloro-4-fluorophenyl)(4-fluoro-4-(((2-(2-(methylamino)phenoxy)ethyl)amino)methyl)piperidin-1-yl)methanone]			-5	-5	199.50 ± 12.35	1.6 ± 0.1	1.8 ± 0.1	0.016	0.018	0	did not induce any significant LLR				
O=C(c1ccc(F)c(Cl)c1)N1CCC(F)(CNCCOc2cccc3[nH]ccc23)CC1 [Compound 56, (4-(((2-((1H-Indol-4-yl)oxy)ethyl)amino)methyl)-4-fluoropiperidin-1-yl)(3-chloro-4-fluorophenyl)methanone]	87.4	>50				1.1 ± 0.1	1.9 ± 0.1	0.011	0.019		elicited a full LLR	67.63 ± 7.83	10 ± 0	10 ± 0	~8
